Patent publication US11492347B2 (ENYO PHARMA, priority 2018, dated 2022)

The molecules below were run on H1N1 (influenza A/New Caledonia/20/99) (assay: microbe, parasite or virus in culture). Conditions: H1N1, A549, 48 h.
Type: cell-based
Work on `CN1CCN(c2ccc(C(=O)Nc3sc4c(c3C(=O)O)CC(C)(C)CC4(C)C)cc2)CC1` [Compound #80, 5,5,7,7-Tetramethyl-2-[[4-(4-methylpiperazin-1-yl)benzoyl]amino]-4,6-dihydrobenzothiophene-3-carboxylic acid] yielded an IC50 of 310 nM. For `CC1(C)Cc2c(sc(NC(=O)c3ccc(N4CCC5(CC4)COC5)cc3)c2C(=O)O)C(C)(C)C1` [Compound #144, 5,5,7,7-Tetramethyl-2-[[4-(2-oxa-7-azaspiro[3.5]nonan-7-yl)benzoyl]amino]-4,6-dihydrobenzothiophene-3-carboxylic acid], the IC50 was 35 nM. Molecule `CC1(C)CCc2sc(NC(=O)c3ccc(NC4CCOCC4)cc3)c(C(=O)O)c2C1` [#161, 5,5-Dimethyl-2-[[4-(tetrahydropyran-4-ylamino)benzoyl]amino]-6,7-dihydro-4H-benzothiophene-3-carboxylic acid] has an IC50 of 15 nM. For `CC1(C)Cc2c(sc(NC(=O)c3ccc(N4CC5(COC5)C4)cc3)c2C(=O)O)C(C)(C)C1` [Compound #143, 5,5,7,7-Tetramethyl-2-[[4-(2-oxa-6-azaspiro[3.3]heptan-6-yl)benzoyl]amino]-4,6-dihydrobenzothiophene-3-carboxylic acid], the IC50 was 160 nM. `CN(CC1CCOCC1)c1ccc(C(=O)Nc2sc3c(c2C(=O)O)CC(C)(C)CC3(C)C)cc1` [Compound #152, 5,5,7,7-Tetramethyl-2-[[4-[methyl(tetrahydropyran-4-ylmethyl)amino]benzoyl]amino]-4,6-dihydrobenzothiophene-3-carboxylicacid] was tested, and the IC50 was 0.5 nM. `COC1CCN(c2ccc(C(=O)Nc3sc4c(c3C(=O)O)CC(C)(C)CC4(C)C)cc2)CC1` [Compound #155, 2-[[4-(4-Methoxy-1-piperidyl)benzoyl]amino]-5,5,7,7-tetramethyl-4,6-dihydrobenzothiophene-3-carboxylic acid] gave an IC50 of 10 nM. Work on `O=C(Nc1sc2c(c1C(=O)O)CCC1(CC1)C2)c1ccccc1` [Compound #29, 2-Benzamidospiro[5,7-dihydro-4H-benzothiophene-6,1′-cyclopropane]-3-carboxylic acid] yielded an IC50 of 90 nM. With `COCCOc1ccc(C(=O)Nc2sc3c(c2C(=O)O)CC(C)(C)CC3(C)C)cc1` [#168, 2-[[4-(2-Methoxyethoxy)benzoyl]amino]-5,5,7,7-tetramethyl-4,6-dihydrobenzothiophene-3-carboxylic acid] the IC50 was 23.2 nM. With `CC1(C)Cc2c(sc(NC(=O)c3ccc(N4CCOCC4)nc3)c2C(=O)O)C(C)(C)C1` [#201, 5,5,7,7-Tetramethyl-2-[(6-morpholinopyridine-3-carbonyl)amino]-4,6-dihydrobenzothiophene-3-carboxylic acid] the IC50 was 150 nM. Work on `CC1(C)CCc2c(sc(NC(=O)c3ccnc(N4CCOCC4)c3)c2C(=O)O)C1` [#222, 6,6-Dimethyl-2-[(2-morpholinopyridine-4-carbonyl)amino]-5,7-dihydro-4H-benzothiophene-3-carboxylic acid] yielded an IC50 of 51 nM. Work on `O=C(Nc1sc2c(c1C(=O)O)C1CCC2C1)c1ccccc1` (centres unmarked) [Compound #28, 2-Benzamido-4,5,6,7-tetrahydro-4,7-methanobenzo[b]thiophene-3-carboxylic acid] yielded an IC50 of 1270 nM. With `CC1(C)CCc2c(sc(NC(=O)c3ccc(OC(F)F)cc3)c2C(=O)O)C1` [Compound #23, 2-[[4-(Difluoromethoxy)benzoyl]amino]-6,6-dimethyl-5,7-dihydro-4H-benzothiophene-3-carboxylic acid] the IC50 was 80 nM. For `COCCNc1ccc(C(=O)Nc2sc3c(c2C(=O)O)CC(C)(C)CC3)cc1` [#173, 2-[[4-(2-Methoxyethylamino)benzoyl]amino]-5,5-dimethyl-6,7-dihydro-4H-benzothiophene-3-carboxylic acid], the IC50 was 24 nM. `CC1(C)Cc2c(sc(NC(=O)c3ccc(C4CCOCC4)cc3)c2C(=O)O)C(C)(C)C1` [#174, 5,5,7,7-Tetramethyl-2-[(4-tetrahydropyran-4-ylbenzoyl)amino]-4,6-dihydrobenzothiophene-3-carboxylic acid] gave an IC50 of 39 nM.
